Source: paper PMC9519552, “Activation of the human insulin receptor by non-insulin-related peptides” (Nature Communications, 2022)
Read-outs that look alike come from different tables or passages of the source. Positions of bridges follow the written chain, without caps; N, C: chain ends. Non-standard residues stand in square brackets, D forms with d. Residues, ends and D or L forms follow the SMILES beside them. *: point of attachment. X1 = NCc1ccc(CC(=O)*)cc1; PhAc = O=C(Cc1ccccc1)*; Aib = CC(C)(N)C(=O)O

Columns and labels:
human IR-A (holoIR-A) = molecular target: T1, human IR-A (holoIR-A) (Homo sapiens, UniProt P06213); assay: holoIR-A competitive radioligand binding assay (scintillation proximity assay); conditions: for weaker affinity for hIR-A than BHI: relative to biosynthetic human insulin
T1 construct: expressed in transfected cells; host or cells: HEK293 (ATCC #CRL-1573), stably transfected; membrane preparation
Procedure, shortened: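 Membranes from HEK293 cells stably expressing C9-tagged human IR-A were used in a WGA-bead SPA competition assay in 50 mM Tris-HCl pH 7.5, 150 mM NaCl, 0.1% fatty-acid-free BSA. Ten-point 3-fold dilutions were incubated 10 h at room temperature before scintillation counting. Percent specific inhibition was calculated after nonspecific-binding correction, from three independent runs.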

[1] = molecular target: T2, human holoIR-A over-expressed in HEK293 cells (Homo sapiens, UniProt P06213); assay: holoIR-A auto-phosphorylation assay (ELISA); type: cell-based
T2 construct: expressed in transfected cells; host or cells: HEK293, stably transfected
Procedure: Phosphorylation was quantified using an ELISA technique. Ninety-six well, flat-bottom microplates (Greiner Bio-One) were pre-coated with 2 µg mL^−1 anti-C9 monoclonal antibody (Rho 1D4; University of British Columbia)[27] in 20 mM sodium carbonate, pH 9.6, at 4 °C for overnight prior to the assay. On the assay day, plates were washed 3× with 0.1% Tween in 50 mM Tris Buffer Saline, pH 7.5 (TBST), and then blocked for greater than 1 h at room temperature (RT) with 1% BSA (Sigma) in TBST.
Stably transfected HEK293 cells over-expressing human holoIR-A containing a C-terminal C9 epitope tag ([…]), were plated at 6 × 10^4 cells per well serum-starved using 0.1% BSA in DMEM (Gibco) for overnight at standard tissue culture condition. […] After a 15-min incubation in lysis buffer at 4 °C, the lysate was transferred to anti-C9 antibody coated capture plate (Rho 1D4; University of British Columbia)[27]. […] After a 1 h incubation at room temperature, the secondary antibody was removed by washing 3× with TBST. Signal detection occurred with the addition of TMB, an HRP substrate (Pierce). After 5–10 min, the reaction was stopped by adding an equal volume of 2 M H2SO4, and the absorbance readings at 450 nm (A450) were recorded using a Envision plate reader (PerkinElmer). Samples were tested in three independent assay runs on three different days.
Percent specific response (y-axis) was plotted versus the log concentration of compound (x-axis) using Prism Version 9.3.1 (GraphPad Software). Individual measurements are provided as Source Data.

[2] = test system: [holoIR-A]-expressing IM-9 human lymphoblast cells; assay: holoIR-A accelerated dissociation assay of pre-bound 125I-insulin; type: binding; conditions: IM-9 cells, 1:40 dilution, 16 °C, 30 min; n = 3
Procedure: Ice-cold 15-25 pM ^125I-insulin solution was added to IM-9 cells and incubated at 4 °C for 2.5 h for pre-bound experiments. […] Following receptor and ^125I-insulin pre-bound, the mix was quickly centrifugated and supernatant was removed. The bound ^125I-insulin and IM-9 cells were then resuspended with 16 °C pre-equilibrated HBB, pH 7.6. The ^125I-ligand/IM-9 cell mixture was aliquoted to cold compounds at 1:40 ratio, respectively. The reactions were incubated at 16 °C for 30 min to allow dissociation of prebound ^125I-insulin and then harvested by centrifugation and aspiration of the supernatant. The radioactivity of cell pellets was determined by gamma counter (Perkin Elmer). Samples were tested in three independent assay runs on three different days. Individual measurements are provided as Source Data.

[3] = molecular target: T2, human holoIR-A over-expressed in HEK293 cells; assay: Inhibition of hIR phosphorylation by peptides, co-incubated with BHI at its EC50 (ELISA); type: cell-based; conditions: for hIRA Phosph IC50 Run 1 / hIRA Phosph IC50 Run 2 / hIRA Phosph IC50 Run 3: inhibition of insulin-stimulated phosphorylation; for hIRA Phosph IC50 Run 1: BHI at its EC50, run 1; for hIRA Phosph IC50 Run 2: BHI at its EC50, run 2; for hIRA Phosph IC50 Run 3: BHI at its EC50, run 3; for IC50: read-out: hIRA Phosph IC50 Mean
Procedure, shortened: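 Serum-starved HEK293 cells stably over-expressing C9-tagged human holoIR-A were treated, lysed, and receptor captured on anti-C9-coated plates. Phosphorylation was detected by HRP/TMB ELISA at A450. Percent specific response was plotted against log compound concentration, with three independent runs on different days.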

[4] = primary peptide set, mean of 3 runs, read-out: IRA Binding Ki Mean
[5] = primary peptide set, mean of 3 runs, read-out: hIRA Phosph EC50 Mean
[6] = Fig. 1b, HEK293 hIR-A cells, 1 h 37 °C, ELISA, errors given as SEM, n = 3 independent replicates, read-out: Auto-phosphorylation constant EC50

T2 sequence (P06213 28-1370 isoform P06213-2 limits assumed): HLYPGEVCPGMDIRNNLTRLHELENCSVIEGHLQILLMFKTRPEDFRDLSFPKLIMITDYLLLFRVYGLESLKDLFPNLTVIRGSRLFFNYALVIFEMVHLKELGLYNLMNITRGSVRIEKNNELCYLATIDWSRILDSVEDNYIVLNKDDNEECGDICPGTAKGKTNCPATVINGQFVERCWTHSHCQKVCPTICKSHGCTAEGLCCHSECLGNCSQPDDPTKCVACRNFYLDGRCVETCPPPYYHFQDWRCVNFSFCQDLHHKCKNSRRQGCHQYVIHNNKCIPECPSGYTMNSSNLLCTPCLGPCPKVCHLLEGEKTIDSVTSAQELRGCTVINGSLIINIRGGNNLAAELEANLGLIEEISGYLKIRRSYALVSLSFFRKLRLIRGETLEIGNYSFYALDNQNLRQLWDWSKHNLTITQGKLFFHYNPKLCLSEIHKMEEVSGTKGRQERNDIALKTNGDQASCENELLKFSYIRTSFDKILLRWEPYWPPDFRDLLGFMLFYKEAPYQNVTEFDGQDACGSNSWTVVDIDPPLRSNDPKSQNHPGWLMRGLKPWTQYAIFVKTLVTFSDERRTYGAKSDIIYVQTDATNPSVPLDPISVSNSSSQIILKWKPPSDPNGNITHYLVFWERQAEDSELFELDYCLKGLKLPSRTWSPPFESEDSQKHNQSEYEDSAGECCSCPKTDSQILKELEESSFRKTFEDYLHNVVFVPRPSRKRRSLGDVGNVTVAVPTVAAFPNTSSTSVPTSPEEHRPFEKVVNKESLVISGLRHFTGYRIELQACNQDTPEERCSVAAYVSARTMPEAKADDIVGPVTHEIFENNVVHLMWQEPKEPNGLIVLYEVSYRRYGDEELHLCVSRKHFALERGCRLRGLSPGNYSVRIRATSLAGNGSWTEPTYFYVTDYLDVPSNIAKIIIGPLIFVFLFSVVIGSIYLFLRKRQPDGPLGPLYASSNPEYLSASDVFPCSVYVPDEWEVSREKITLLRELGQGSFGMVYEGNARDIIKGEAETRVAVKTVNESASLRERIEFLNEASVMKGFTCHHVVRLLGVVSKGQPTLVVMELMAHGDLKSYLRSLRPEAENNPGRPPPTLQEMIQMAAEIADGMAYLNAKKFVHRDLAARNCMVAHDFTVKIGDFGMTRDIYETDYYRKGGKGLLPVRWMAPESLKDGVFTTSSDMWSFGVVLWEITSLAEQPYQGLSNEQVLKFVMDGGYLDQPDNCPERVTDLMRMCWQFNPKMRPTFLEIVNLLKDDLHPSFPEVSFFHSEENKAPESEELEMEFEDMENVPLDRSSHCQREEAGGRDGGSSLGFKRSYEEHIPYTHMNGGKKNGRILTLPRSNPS
T2 sequence (P06213 763-1382 partner limits assumed): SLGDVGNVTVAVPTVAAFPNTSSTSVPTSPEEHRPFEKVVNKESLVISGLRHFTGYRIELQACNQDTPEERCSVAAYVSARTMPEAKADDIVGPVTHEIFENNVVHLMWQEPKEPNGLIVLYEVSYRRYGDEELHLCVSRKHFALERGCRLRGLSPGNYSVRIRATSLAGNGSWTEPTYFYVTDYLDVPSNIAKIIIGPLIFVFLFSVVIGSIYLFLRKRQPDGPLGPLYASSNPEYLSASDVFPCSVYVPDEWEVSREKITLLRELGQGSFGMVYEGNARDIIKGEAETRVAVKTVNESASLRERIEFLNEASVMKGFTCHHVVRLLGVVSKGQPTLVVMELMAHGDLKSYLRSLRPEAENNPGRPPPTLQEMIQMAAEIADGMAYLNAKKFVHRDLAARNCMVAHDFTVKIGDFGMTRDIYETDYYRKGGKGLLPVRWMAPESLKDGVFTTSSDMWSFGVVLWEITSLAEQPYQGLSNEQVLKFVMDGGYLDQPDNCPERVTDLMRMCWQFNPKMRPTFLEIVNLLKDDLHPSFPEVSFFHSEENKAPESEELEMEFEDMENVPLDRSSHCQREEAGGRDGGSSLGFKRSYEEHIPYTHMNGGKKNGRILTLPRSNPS
T1 sequence (P06213 28-1370 isoform P06213-2 limits assumed): as the sequence (P06213 28-1370 isoform P06213-2 limits assumed) above
T1 sequence (P06213 763-1382 partner limits assumed): as the sequence (P06213 763-1382 partner limits assumed) above

SMILES	Ki (human IR-A (holoIR-A); [4])	EC50 [1, 5]	effect on dissociation of pre-bound I125-insulin tracer from native membrane-expressed hIR (in words) [2]	EC50 [1, 6]	hIRA Phosph EC50 Run 1 ([1]; primary peptide set)	hIRA Phosph EC50 Run 2 ([1]; primary peptide set)	hIRA Phosph EC50 Run 3 ([1]; primary peptide set)	hIRA Phosph IC50 Run 1 [3]	hIRA Phosph IC50 Run 2 [3]	hIRA Phosph IC50 Run 3 [3]	IC50 [3]	weaker affinity for hIR-A than BHI (human IR-A (holoIR-A))	activity in hIR autophosphorylation assay (in words) [1]	affinity for hIR (in words) (human IR-A (holoIR-A); comparable to that of BHI)	weaker activity than BHI in an hIR autophosphorylation assay ([1]; relative to biosynthetic human insulin)	Ki (human IR-A (holoIR-A); IM172N22(-) mutant peptide set, mean of 3 runs, read-out: hIRA Binding Ki Mean)	Ki (human IR-A (holoIR-A); IM172N22(-) mutant peptide set, run 1, read-out: hIRA Binding Ki Run 1)	Ki (human IR-A (holoIR-A); IM172N22(-) mutant peptide set, run 2, read-out: hIRA Binding Ki Run 2)	Ki (human IR-A (holoIR-A); IM172N22(-) mutant peptide set, run 3, read-out: hIRA Binding Ki Run 3)	reduction in ki for hIR-A on substitution (human IR-A (holoIR-A); relative to control peptide IM172N22 devoid of N-terminal phenylacetylation)
CC(C)C[C@H](NC(=O)[C@H](CCC(N)=O)NC(=O)[C@H](CCCNC(=N)N)NC(=O)[C@H](CCC(=O)O)NC(=O)[C@H](Cc1ccccc1)NC(=O)[C@H](Cc1c[nH]c2ccccc12)NC(=O)[C@H](CC(=O)O)NC(=O)[C@H](Cc1ccc(O)cc1)NC(=O)[C@H](Cc1ccccc1)NC(=O)[C@H](CO)NC(=O)[C@H](CCC(=O)O)NC(=O)[C@H](CC(=O)O)NC(=O)[C@H](CC(C)C)NC(=O)[C@H](CO)NC(=O)CNC(=O)[C@H](CO)NC(=O)[C@@H]1CCCN1C(=O)[C@@H]1CSSC[C@H](NC(=O)[C@H](CCC(=O)O)NC(=O)[C@@H](NC(=O)[C@H](CCC(N)=O)NC(=O)[C@H](C)NC(=O)[C@H](Cc2c[nH]c3ccccc23)NC(=O)[C@H](CCC(=O)O)NC(=O)[C@H](CCC(=O)O)NC(=O)[C@H](CCC(=O)O)NC(=O)[C@H](CC(C)C)NC(=O)[C@@H](N)CO)C(C)C)C(=O)N[C@@H](CCC(=O)O)C(=O)N[C@@H](C(C)C)C(=O)N[C@@H](Cc2ccc(O)cc2)C(=O)NCC(=O)N[C@@H](CCCNC(=N)N)C(=O)NCC(=O)N1)C(=O)NCC(=O)O [Peptide S519, reference compound] (H-SLEEEWAQVECEVYGRGCPSGSLDESFYDWFERQLG-OH; disulfide 11-18)	3.18 nM	6.04 nM	–	–	–	–	–	–	–	–	–	–	–	–	–	–	–	–	–	–
COc1ccc(C[C@H](NC(=O)[C@H](C)NC(=O)[C@H](CCCCN)NC(=O)[C@H](CCCCN)NC(=O)[C@@H]2CCCN2C(C)=O)C(=O)N[C@@H](Cc2ccc(O)cc2)C(=O)N[C@@H](CCCCN)C(=O)N[C@@H](Cc2c[nH]c3ccccc23)C(=O)N[C@@H](Cc2ccccc2)C(=O)N[C@@H](CCC(=O)O)C(=O)N[C@@H](CCCNC(=N)N)C(=O)N[C@@H](CCC(N)=O)C(=O)N[C@@H](CC(C)C)C(=O)N[C@@H](CCCCN)C(N)=O)cc1 [IM459C14] (Ac-PKKAY(Me)YKWFERQLK-NH2)	215 nM	> 1000 nM	no effect	> 1000 nM	>1000 nM	>1000 nM	>1000 nM	–	–	–	–	–	–	–	–	–	–	–	–	–
CC[C@H](C)[C@H](NC(=O)[C@H](CCC(N)=O)NC(=O)[C@H](C)NC(=O)[C@H](Cc1c[nH]c2ccccc12)NC(=O)[C@H](CCC(=O)O)NC(=O)[C@H](CCC(=O)O)NC(=O)[C@H](CCC(=O)O)NC(=O)[C@H](CC(C)C)NC(=O)[C@H](CO)NC(=O)Cc1ccccc1)C(=O)N[C@@H](CCC(=O)O)C(=O)N[C@H]1CSSC[C@@H](C(=O)N2CCC[C@H]2C(=O)N2CCC[C@H]2C(=O)N[C@@H](CO)C(=O)N[C@@H](CCC(=O)O)C(=O)N[C@@H](CO)C(N)=O)NC(=O)[C@H](CCCNC(=N)N)NC(=O)CNC(=O)[C@H](Cc2ccc(O)cc2)NC(=O)[C@H](C(C)C)NC(=O)[C@H](CCC(=O)O)NC1=O [IM172N22] (PhAc-SLEEEWAQIECEVYGRCPPSES-NH2; disulfide 11-17)	3.08 nM	> 1000 nM	–	> 1000 nM	>1000 nM	>1000 nM	>1000 nM	17 nM	17 nM	17 nM	16.9 nM	~10 fold	devoid of detectable activity	–	–	–	–	–	–	–
CC[C@H](C)[C@H](NC(=O)[C@H](CCCCN)NC(=O)C(C)(C)NC(=O)[C@H](Cc1c[nH]c2ccccc12)NC(=O)[C@H](CCC(=O)O)NC(=O)[C@H](CCC(N)=O)NC(=O)[C@H](CCC(=O)O)NC(=O)[C@H](CC(C)C)NC(=O)[C@H](CO)NC(=O)Cc1ccc(CN)cc1)C(=O)N[C@@H](CCC(=O)O)C(=O)N[C@H]1CSSC[C@@H](C(=O)N2CCC[C@H]2C(=O)N2CCC[C@H]2C(=O)N[C@@H](CCCCN)C(=O)N[C@@H](CCCCN)C(=O)N[C@@H](C)C(=O)N[C@@H](Cc2ccc(OC)cc2)C(=O)N[C@@H](Cc2ccc(O)cc2)C(=O)N[C@@H](CCCCN)C(=O)N[C@@H](Cc2c[nH]c3ccccc23)C(=O)N[C@@H](Cc2ccccc2)C(=O)N[C@@H](CCC(=O)O)C(=O)N[C@@H](CCCNC(=N)N)C(=O)N[C@@H](CCC(N)=O)C(=O)N[C@@H](CC(C)C)C(=O)N[C@@H](CCCCN)C(N)=O)NC(=O)[C@H](CCCCN)NC(=O)CNC(=O)[C@H](Cc2ccc(O)cc2)NC(=O)[C@H](C(C)C)NC(=O)[C@H](CCC(=O)O)NC1=O [IM459] (X1-SLEQEW[Aib]KIECEVYGKCPPKKAY(Me)YKWFERQLK-NH2; disulfide 11-17)	0.206 nM	7.36 nM	decreases dissociation of the pre-bound insulin tracer	–	6.534 nM	8.090 nM	–	–	–	–	–	–	–	sub-nM	~2.5 fold	–	–	–	–	–
COc1ccc(C[C@H](NC(=O)[C@H](CO)NC(=O)[C@H](CCC(=O)O)NC(=O)[C@H](CO)NC(=O)[C@@H]2CCCN2C(C)=O)C(=O)N[C@@H](Cc2ccc(O)cc2)C(=O)N[C@@H](CCCCN)C(=O)N[C@@H](Cc2c[nH]c3ccccc23)C(=O)N[C@@H](Cc2ccccc2)C(=O)N[C@@H](CCC(=O)O)C(=O)N[C@@H](CCCNC(=N)N)C(=O)N[C@@H](CCC(N)=O)C(=O)N[C@@H](CC(C)C)C(N)=O)cc1 [IM172C13] (Ac-PSESY(Me)YKWFERQL-NH2)	310 nM	> 10000 nM	–	> 10000 nM	>10000 nM	>10000 nM	>10000 nM	–	–	–	–	~1000 fold	devoid of detectable activity	–	–	–	–	–	–	–
CC[C@H](C)[C@H](NC(=O)[C@H](CCC(N)=O)NC(=O)[C@H](C)NC(=O)[C@H](Cc1c[nH]c2ccccc12)NC(=O)[C@H](CCC(=O)O)NC(=O)[C@H](CCC(=O)O)NC(=O)[C@H](CCC(=O)O)NC(=O)[C@H](CC(C)C)NC(=O)[C@H](CO)NC(C)=O)C(=O)N[C@@H](CCC(=O)O)C(=O)N[C@H]1CSSC[C@@H](C(=O)N2CCC[C@H]2C(=O)N2CCC[C@H]2C(=O)N[C@@H](C)C(=O)N[C@@H](CCC(=O)O)C(=O)N[C@@H](CO)C(N)=O)NC(=O)[C@H](CCCNC(=N)N)NC(=O)CNC(=O)[C@H](Cc2ccc(O)cc2)NC(=O)[C@H](C(C)C)NC(=O)[C@H](CCC(=O)O)NC1=O [Peptide S20A] (Ac-SLEEEWAQIECEVYGRCPPAES-NH2; disulfide 11-17)	–	–	–	–	–	–	–	53 nM	40 nM	53 nM	48.5 nM	–	–	–	–	5.4 nM	4.72 nM	5.70 nM	5.77 nM	lower than 5 fold
